Laboratory results from patent publication EP1171440B1, “SUBSTITUTED-3-CYANO-[1.7],[1.5], AND [1.8]-NAPHTHYRIDINE INHIBITORS OF TYROSINE KINASES” (Wyeth Holdings Corporation, priority 1999, dated 2000).
In brackets after ≈: the same amount, converted by molar mass. Several values for one entry are separate records, joined by “and”; a condition that tells them apart may be missing. Equal entries are not always repeated. Where two headings read alike, the source gives them in different places. Each block holds one compound with its values, some of them ahead of it.

Legend:
[1] = target: T1, EGF-R Kinase (recombinant enzyme) (Homo sapiens, UniProt P00533); assay: Inhibition of Epidermal Growth Factor Receptor Kinase (EGF-R) using recombinant enzyme, RR-SRC peptide phosphorylation with 33P-ATP; assay type: biochemical; conditions: for inhibition at 0.5 µM: 0.5 µM concentration of test compound, read-out: % Inhibition @ 0.5
T1 construct: containing the EGFR cDNA encoding amino acids 645 - 1186 preceded by Met-Ala-(His)6; made in house; host or cells: Sf9 insect cells infected with recombinant baculovirus vHcEGFR52
T1 sequence (P00533 669-1210): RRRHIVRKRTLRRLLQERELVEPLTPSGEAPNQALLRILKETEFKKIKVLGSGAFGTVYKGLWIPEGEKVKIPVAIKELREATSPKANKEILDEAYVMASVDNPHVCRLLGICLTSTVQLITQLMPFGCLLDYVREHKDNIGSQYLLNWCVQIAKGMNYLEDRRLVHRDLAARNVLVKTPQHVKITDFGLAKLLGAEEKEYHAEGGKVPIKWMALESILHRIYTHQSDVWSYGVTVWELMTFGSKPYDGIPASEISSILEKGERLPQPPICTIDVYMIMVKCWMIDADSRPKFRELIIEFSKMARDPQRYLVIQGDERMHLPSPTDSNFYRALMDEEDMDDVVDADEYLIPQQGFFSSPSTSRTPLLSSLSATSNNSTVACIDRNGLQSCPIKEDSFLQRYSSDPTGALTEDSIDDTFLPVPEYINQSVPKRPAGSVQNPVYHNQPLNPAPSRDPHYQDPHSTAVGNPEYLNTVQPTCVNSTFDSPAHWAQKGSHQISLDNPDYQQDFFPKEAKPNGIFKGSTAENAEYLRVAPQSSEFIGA
Protocol: Representative test compounds were evaluated for their ability to inhibit the phosphorylation of the tyrosine residue of a peptide substrate catalyzed by the enzyme epidermal growth factor receptor kinase. […] The enzyme used in this assay is the His-tagged cytoplasmic domain of EGFR. A recombinant baculovirus (vHcEGFR52) was constructed containing the EGFR cDNA encoding amino acids 645 - 1186 preceded by Met-Ala-(His)6 . Sf9 cells in 100 mm plates were infected at an moi of 10 pfu/cell and cells were harvested 48 h post infection. A cytoplasmic extract was prepared using 1% Triton X-100 and applied to Ni-NTA column. After washing the column with 20 mM imidazole, HcEGFR was eluted with 250 mM imidazole (in 50 mM Na2HPO4, pH 8.0, 300 mM NaCl). Fractions collected were dialyzed against 10 mM HEPES, pH 7.0, 50 mM NaCl, 10% glycerol, 1ug/mL antipain and leupeptin and 0.1 mM Pefabloc SC. The protein was frozen in dry ice/methanol and stored -70° C.
Test compounds were made into 10 mg/mL stock solutions in 100% dimethylsulfoxide (DMSO). Prior to experiment, stock solutions were diluted to 500 uM with 100% DMSO and then serially diluted to the desired concentration with HEPES buffer (30 mM HEPES pH 7.4).
For the enzyme reaction, 10 uL of each inhibitor (at various concentrations) were added to each well of a 96-well plate. To this was added 3 uL of enzyme (1:10 dilution in 10mM HEPES, pH 7.4 for final conc. of 1:120). This was allowed to sit for 10 min on ice and was followed by the addition of 5 ul peptide (80 uM final conc.), 10ul of 4X Buffer (Table A), 0.25 uL ^33P-ATP and 12 uL H2O. The reaction was allowed to run for 90 min at room temperature and was followed by spotting the entire volume on to precut P81 filter papers. The filter discs were washed 2X with 0.5% phosphoric acid and radioactivity was measured using a liquid scintillation counter. Table A
The IC50 is the concentration of test compound needed to reduce the total amount of phosphorylated substrate by 50%. The % inhibition of the test compound was determined for at least three different concentrations and the IC50 value was evaluated from the dose response curve. […] CPM(control) is in units of counts per minute and was a number expressing the amount of radiolabeled ATP (γ-^33P) incorporated into the RR-SRC peptide substrate by the enzyme after 90 minutes at room temperature in the absence of test compound as measured by liquid scintillation counting. The CPM values were corrected for the background counts produced by ATP in the absence of the enzymatic reaction. Where it was possible to determine an IC50 value, this is reported in TABLE 1 otherwise the % inhibition at 0.5 µM concentration of test compound is shown in TABLE 1.

[2] = target: Mitogen Activated Protein Kinase (Mek-Erk) (Homo sapiens, UniProt P28482+Q02750); assay: Mitogen Activated Protein Kinase (MAPK) coupled MEK 1 / ERK2 assay; assay type: biochemical; conditions: separate entries = evaluated more than one time
Sequence of Mitogen Activated Protein Kinase (Mek-Erk) (P28482 2-360): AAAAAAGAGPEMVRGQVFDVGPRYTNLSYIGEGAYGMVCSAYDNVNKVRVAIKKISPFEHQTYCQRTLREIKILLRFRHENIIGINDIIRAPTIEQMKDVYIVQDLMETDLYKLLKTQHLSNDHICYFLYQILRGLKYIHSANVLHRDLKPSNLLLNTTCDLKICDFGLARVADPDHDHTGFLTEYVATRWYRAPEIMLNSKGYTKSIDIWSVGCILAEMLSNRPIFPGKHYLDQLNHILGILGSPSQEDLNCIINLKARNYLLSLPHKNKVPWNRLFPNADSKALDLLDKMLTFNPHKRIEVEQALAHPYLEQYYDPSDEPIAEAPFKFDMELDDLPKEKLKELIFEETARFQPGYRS
Sequence of Mitogen Activated Protein Kinase (Mek-Erk) (Q02750 whole entry): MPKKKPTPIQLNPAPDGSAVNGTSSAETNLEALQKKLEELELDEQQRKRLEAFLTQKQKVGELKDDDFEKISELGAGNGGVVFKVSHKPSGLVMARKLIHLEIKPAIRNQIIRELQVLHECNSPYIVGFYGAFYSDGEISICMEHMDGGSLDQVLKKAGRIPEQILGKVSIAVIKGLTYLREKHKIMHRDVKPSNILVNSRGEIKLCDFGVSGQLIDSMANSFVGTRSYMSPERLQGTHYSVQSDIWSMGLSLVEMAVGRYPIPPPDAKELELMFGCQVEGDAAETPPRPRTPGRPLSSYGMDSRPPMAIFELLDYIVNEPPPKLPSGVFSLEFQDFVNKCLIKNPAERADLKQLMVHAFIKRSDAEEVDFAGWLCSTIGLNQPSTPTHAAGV
Protocol: To evaluate inhibitors of the MAP (mitogen activated protein) kinase a two component coupled standard pharmacological test procedure, which measures phosphorylation of a serine/threonine residue in an appropriate sequence in the substrate in the presence and absence of a putative inhibitor, was used. Recombinant human MEK 1 (MAPKK) was first used to activate recombinant human ERK2 (MAPK) and the activated MAPK (ERK) was incubated with substrate (MBP peptide or MYC peptide) in the presence of ATP, Mg^+2 and radiolabeled ^33P ATP. The phosphorylated peptide was captured on a P 81 phosphocellulose filter (paper filter or embedded in microtiter plate) washed and counted by scintillation methods.
The peptide substrates used in the assay are MBP, peptide substrate ([…]), or synthetic Myc substrate, ([…]•5 TFA. The recombinant enzymes used were prepared as GST fusion proteins of human ERK 2 and human MEK 1. Inhibitor samples were prepared as 10X stocks in 10% DMSO and an appropriate aliquot was used to deliver either 10 ug/ml for a single point screening dose or 100, 10, 1, and 0.1 uM final concentration for a dose response curve. Final DMSO concentrations were less than or equal to 1%.
The reaction was run as follows in 50 mM Tris kinase buffer, pH 7.4 in a reaction volume of 50 ul. The appropriate volume of kinase buffer and inhibitor sample was added to the tube. Appropriate dilution of enzyme was delivered to give 2-5 ug recombinant MAPK (Erk ) per tube. The inhibitor was incubated with MAPK (Erk) for 30 min at 0 deg. C. Recombinant Mek (MAPKK) ( 0.5-2.5 ug) or fully activated Mek (0.05-0.1 units) was added to activate the Erk and incubated for 30 min at 30° C. Then substrate and gamma ^33P ATP was were added to give a final concentration of 0.5- 1 mM MBPP or 250-500 uM Myc; 0.2-0.5 uCi gamma ^33P ATP/tube; 50 µM ATP final concentration. Samples were incubated at 30°C for 30 minutes and the reaction was stopped by adding 25 µl of ice cold 10 %TCA. After samples were chilled on ice for 30 min, 20 µl of sample was transferred onto P 81 phosphocellulose filter paper or appropriate MTP with embedded P 81 filter. Filter papers or MTP were washed 2 times with a large volume of 1% acetic acid, then 2 times with water. The filters or MTP were briefly air dried before addition of scintillant and samples were counted in the appropriate scintillation counter set up for reading ^33P isotope. Samples included a positive control (activated enzyme plus substrate); a no enzyme control; a no substrate control; samples with different concentrations of putative inhibitor; and samples with reference inhibitors (other active compounds or non-specific inhibitors such as staurosporine or K252 B).
The raw data was captured as cpm. Sample replicates were averaged and corrected for background count. Mean cpm data was tabulated by group and % inhibition by a test compound was calculated as (corrected cpm control- corrected. cpm sample/control) X 100 = % inhibition. If several concentrations of inhibitor were tested, IC50 values (the concentration which gives 50% inhibition) were determined graphically from the dose response curve for % inhibition or by an appropriate computer program. The results obtained for representative compounds of this invention are listed in TABLE 3 where there may be separate entries for the same compound; this is an indication that the compound was evaluated more than one time.

A2780DDP = assay: Inhibition of Cancer Cell Growth as Measured by Cell Number (Sulforhodamine B); assay type: cell-based, Human; conditions: 48 hours exposure
Protocol: (§1) After 48 hours exposure to test compounds, cells were fixed with trichloroacetic acid, and stained with Sulforhodamine B. After washing with trichloroacetic acid, bound dye was solubilized in 10 mM Tris base and optical density was determined using a plate reader. Under conditions of the assay the optical density is proportional to the number of cells in the well. […] The test procedure is described in details by Philip Skehan et. al, J.Natl. Canc. […] The Her2Neu cell line is a 3T3 line that has bbeen transfected with Her2 receptor kinase.

A431 = assay: as above; assay type: cell-based, Human; conditions: 48 hours exposure
Protocol: as §1

SKBR3 = assay: as above; assay type: cell-based, Human
Protocol: as §1

SW620 = assay: as above; assay type: cell-based, Human
Protocol: as §1

A2780S = assay: as above; assay type: cell-based, Human; conditions: 48 hours exposure
Protocol: as §1

MDA435 = assay: as above; assay type: cell-based, Human; conditions: 48 hours exposure
Protocol: as §1

[3] = recombinant His-tagged cytoplasmic domain of EGFR, RR-SRC peptide, 90 min at room temperature, read-out: IC50
[4] = Homo sapiens, 48 h, read-out: IC50
[5] = Homo sapiens, A-431, 48 h, read-out: IC50
[6] = Homo sapiens, SK-BR-3, 48 hours exposure, read-out: IC50
[7] = Homo sapiens, SW-620, 48 hours exposure, read-out: IC50
[8] = Homo sapiens, MDA435, 48 h, read-out: IC50

IC50 [1, 3]: 0.003 µM
SMILES: N#Cc1cnc2ncc([N+](=O)[O-])cc2c1Nc1cccc(Br)c1 [Example 21, 4-(3-Bromo-phenylamino)-6-nitro-[1.8]naphthyridine-3-carbonitrile]

SMILES: N#Cc1cnc2ncc(N)cc2c1Nc1cccc(Br)c1 [Example 22, 6-Amino-4-(3-bromo-phenylamino)-[1.8]naphthyridine-3-carbonitrile]
IC50 [2]: > 100 µM | IC50 [1, 3]: 0.05 µM

SMILES: C=CC(=O)Nc1cnc2ncc(C#N)c(Nc3cccc(Br)c3)c2c1 [Example 23, N-[5-(3-Bromo-phenylamino)-6-cyano-[1.8]naphthyridin-3-yl]-acrylamide]
IC50 ([2]; read-out: IC50): > 100 µM and 100 µM | IC50 [1]: 0.007 µM

IC50 [1, 3]: 0.1 µM
SMILES: N#Cc1cnc2ncc([N+](=O)[O-])cc2c1Nc1ccc(F)c(Cl)c1 [Example 25, 4-(3-Chloro-4-fluoro-phenylamino)-6-nitro-[1.8]naphthyridine-3-carbonitrile]

IC50 ([2]; read-out: IC50): > 100 µM
SMILES: N#Cc1cnc2ncc(N)cc2c1Nc1ccc(F)c(Cl)c1 [Example 26, 6-Amino-4-(3-chloro-4-fluoro-phenylamino)-[1.8]naphthyridine-3-carbonitrile]

SMILES: CC#CC(=O)Nc1cnc2ncc(C#N)c(Nc3ccc(F)c(Cl)c3)c2c1 [Example 27, But-2-ynoic acid [5-(3-chloro-4-fluoro-phenylamino)-6-cyano-[1.8]-naphthyridin-3-yl]-amide]
IC50 [2]: > 100 µM

SMILES: N#Cc1cnc2ncc(NC(=O)CCl)cc2c1Nc1cccc(Br)c1 [Example 28, N-[5-(3-Bromo-phenylamino)-6-cyano-[1.8]naphthyridin-3-yl]-2-chloro-acetamide]
IC50 ([2]; read-out: IC50): 6 µM

SMILES: CN(C)CC=CC(=O)Nc1cnc2ncc(C#N)c(Nc3cccc(Br)c3)c2c1 [Example 30, 4-Dimethylamino-but-2-enoic acid [5-(3-bromo-phenylamino)-6-cyano-[1.8]naphthyridin-3-yl]-amide]
IC50 (A2780DDP; [4]): 4 µg/mL (≈ 8.87 µM) | IC50 (A431; [5]): 2.76 µg/mL (≈ 6.12 µM) | IC50 (SKBR3; [6]): 4.83 µg/mL (≈ 10.7 µM) | IC50 (SW620; [7]): > 5 µg/mL | IC50 (A2780S; [4]): 1.77 µg/mL (≈ 3.92 µM) | IC50 (MDA435; [8]): > 5 µg/mL | IC50 ([2]; read-out: IC50): 50 µM | inhibition at 0.5 µM [1]: 47% | IC50 [1, 3]: 0.8 µM

SMILES: CCOc1ccc2ncc(C#N)c(Nc3cccc(Br)c3)c2n1 [Example 35, 4-(3-Bromo-phenylamino)-6-ethoxy-[1.5]naphthyridine-3-carbonitrile]
IC50 [2]: > 100 µM | inhibition at 0.5 µM [1]: 9% | IC50 [1, 3]: > 10 µM

IC50 ([2]; read-out: IC50): > 100 µM
SMILES: N#Cc1cnc2cccnc2c1Nc1cccc(Br)c1 [Example 37, 4-(3-Bromophenylamino)-[1.5]naphthyridine-3-carbonitrile]

SMILES: N#Cc1cnc2ccc(N)nc2c1Nc1cccc(Br)c1 [Example 49, 6-Amino-4-(3-bromo-phenylamino)-[1.5]naphthyridine-3-carbonitrile]
IC50 [2]: 25 µM

SMILES: N#Cc1cnc2cnc(F)cc2c1Nc1cccc(Br)c1 [Example 57, 4-(3-Bromo-phenylamino)-6-fluoro-[1.7]naphthyridine-3-carbonitrile]
IC50 (A2780DDP; [4]): > 5 µg/mL | IC50 (A431; [5]): 3.92 µg/mL (≈ 11.4 µM) | IC50 (SKBR3; [6]): > 5 µg/mL | IC50 (SW620; [7]): > 5 µg/mL | IC50 (A2780S; [4]): 3.33 µg/mL (≈ 9.7 µM) | IC50 (MDA435; [8]): > 5 µg/mL | IC50 [2]: > 100 µM | IC50 [1, 3]: 0.008 µM

SMILES: COc1ccc(CNc2cc3c(Nc4cccc(Br)c4)c(C#N)cnc3cn2)cc1 [Example 58, 4-(3-Bromo-phenylamino)-6-(4-methoxy-benzylamino)-[1.7]naphthyridine-3-carbonitrile]
IC50 (A2780DDP; [4]): 1.8 µg/mL (≈ 3.91 µM) | IC50 (A431; [5]): 0.4 µg/mL (≈ 0.869 µM) | IC50 (SKBR3; [6]): 2.9 µg/mL (≈ 6.3 µM) | IC50 (SW620; [7]): 4.1 µg/mL (≈ 8.91 µM) | IC50 (A2780S; [4]): 1 µg/mL (≈ 2.17 µM) | IC50 (MDA435; [8]): 2.4 µg/mL (≈ 5.21 µM) | IC50 [2]: > 100 µM | IC50 [1, 3]: > 0.1 µM

IC50 (A2780DDP; [4]): 3.1 µg/mL (≈ 9.11 µM) | IC50 (A431; [5]): 0.4 µg/mL (≈ 1.18 µM) | IC50 (SKBR3; [6]): 4.1 µg/mL (≈ 12.1 µM) | IC50 (SW620; [7]): > 5 µg/mL | IC50 (A2780S; [4]): 3.5 µg/mL (≈ 10.3 µM) | IC50 (MDA435; [8]): > 5 µg/mL | IC50 [1, 3]: 0.0007 µM
SMILES: N#Cc1cnc2cnc(N)cc2c1Nc1cccc(Br)c1 [Example 59, 6-Amino-4-(3-bromo-phenylamino)-[1.7]naphthyridine-3-carbonitrile]

IC50 (A2780DDP): 2.969 µg/mL (≈ 7.05 µM) | IC50 (A431): 3.056 µg/mL (≈ 7.25 µM) | IC50 (SKBR3; 48 hours exposure): 3.591 µg/mL (≈ 8.52 µM) | IC50 (SW620; 48 hours exposure): 4.724 µg/mL (≈ 11.2 µM) | IC50 (A2780S): 2.344 µg/mL (≈ 5.56 µM) | IC50 (MDA435): 4.203 µg/mL (≈ 9.97 µM)
SMILES: C[Si](C)(C)C#Cc1cc2c(Nc3cccc(Br)c3)c(C#N)cnc2cn1 [Example 85, 4-(3-Bromo-phenylamino)-6-trimethylsilanylethynyl-[1.7]naphthyridine-3-carbonitrile]
